Measured values as given in publication PMC7961214 (Advanced Pharmaceutical Bulletin, 2020).
Read-outs that look alike come from different tables or passages of the source.

Assays:
[1] = In vivo pharmacokinetic study, curcumin plasma concentration by UPLC-MS/MS; set-up: species or system female Wistar rats; settings: rats, single oral dose 100 mg/kg BW, mean ± SE (n = 5)
Method: The pharmacokinetic evaluation was carried out after obtaining approval from the Ethics Committee of the Faculty of Medicine Universitas Indonesia (approval number: 1188/ UN.2 F1/ETIK/2018). A pharmacokinetic study was carried out in female Wistar rats to determine the pharmacokinetic profile of curcumin particles and nanoparticles. Rats weighing 150–200 g were obtained and maintained at the Biomedical Research Center and Basic Health Technology Laboratory, Balitbangkes, Republic of Indonesia, Ministry of Health. The rats were placed in a room with constant temperature and humidity, adequate lighting, pellet food, and water ad libitum.
For each analysis, blood samples were pooled from six rats. […] Blood samples were taken from the rats tail vein using EDTA tubes. Blood samples were centrifuged at 3000 rpm for 15 minutes to obtain plasma, then stored at -80°C until analysis.
The LC-MS/MS system used was UPLC Waters and tandem mass spectrometry with a positive electrospray ionization source. Separation of analyte in the sample was carried using a liquid chromatography system with Acquity UPLC® BEH C18 column and mobile phase gradient in the form of 0.1% and acetonitrile formic acid with a ratio of 72:28 with analyte rate of 0.3 mL/min and injection volume of 3 µL. […] The calibration curve of a standard solution was made with the final level of the analytes at 1, 2.5, 5, 10, 25, and 50 ng/mL.[24]
The pharmacokinetic profiles were represented as mean and standard error (SE) from each group and were estimated through non-compartmental analysis. […] The area under the curve (AUC) from the beginning to the endpoint ( AUC^0→3 ) was calculated using the trapezoidal method. AUC^0→∞ is the amount of the AUC per time interval from 0 to the time of infinity, calculated by AUC^0→3 […]; Cpn is the plasma concentration at the last sampling time. […] The t1/2 was counted using the equation t1/2 = ln 2/Ke, and the CL was calculated by dividing the dose by AUC^0→∞ .[25]

[2] = Particle size and distribution (Delsa Nanoparticle Size Analyzer); type: physicochemical
Description: The examination of particle size and distribution of particles from nanoparticles was done using the Delsa™ Nanoparticle Size Analyzer (Beckman Coulter, Brea, USA).

[3] = cited from earlier work
[4] = cited from earlier work; remark: listed apart in the source
[5] = 340 mg/kg given orally ref Timothy et al; cited from earlier work

Cmax ([1]; female, Wistar, rat): 1.51 ± 0.401 ng/mL | Tmax ([1]; female, Wistar, rat): 44 min | AUC(0-t) ([1]; female, Wistar, rat, read-out: AUC0-3): 1.5 ± 0.401 ng·h/mL | AUC ([1]; female, Wistar, rat, read-out: AUC0-~): 1.71 ± 0.535 ng·h/mL | k el ([1]; female, Wistar, rat, read-out: Ke (converted)): 0.000327 s⁻¹ | half-life ([1]; female, Wistar, rat, read-out: t1/2 elimination (converted)): 51.5 ± 12.8 min | Ka ([1]; residual method): 1.958 ± 0.468 h⁻¹ | mean particle size [2]: 16103.4 nm
SMILES: COc1cc(/C=C/C(=O)CC(=O)/C=C/c2ccc(O)c(OC)c2)ccc1O [Curcumin particles, Curcumin]
partition coefficient [3]: 2.3–2.6 | bioavailability [4]: approximately 1% | Tmax [5]: 30 min
